Converted amounts (≈) assume the structure as drawn. Read-outs that look alike come from different tables or passages of the source.
Columns and labels:
[1] = test system: Saccharomyces cerevisiae ATCC 9763; assay: MIC, two-fold agar dilution, S. cerevisiae ATCC 9763; type: cell-based; settings: ATCC9763, YMA pH 7.0, 28° C., 40 hours
Protocol: (§1) Minimum inhibitory concentrations (MICs) of nine 4'-N-substituted pradimicin derivatives were determined by two-fold agar dilution method on phosphate-buffered yeast morphology agar (YMA, pH 7.0, Difco Laboratories). A 5-μl of fungal cell suspension containing 2×10^6 cells/ml (2×10^7 cells/ml for Trichophyton mentagrophytes) were spotted on the surface of the agar plates containing test compound. MICs were recorded after 40-hour incubation at 28° C. except for T. mentagrophytes, which required 60-hour incubation to produce visually evaluable growth on the drug-free control plates and were defined as the lowest antibiotic concentrations showing no growth or less than five discrete colonies per spot.
(§2) Medium: yeast morphology agar + 1/15 M phosphate buffer (pH 7.0)
(§3) Incubation conditions: 28° C., 40 hours (C. albicans ATCC 38247 & T.
(§4) Medium: Yeast morphology agar + 1/15 phosphate buffer (pH 7.0).

[2] = test system: Candida albicans IAM 4888; assay: MIC, two-fold agar dilution, C. albicans IAM 4888; type: cell-based; settings: IAM4888, YMA pH 7.0, 28° C., 40 hours
Protocol: as §1, §2, §3, §4

[3] = test system: Trichophyton mentagrophytes #4329; assay: MIC, two-fold agar dilution, T. mentagrophytes #4329; type: cell-based
Protocol: as §1, §2, §3
(§5) mentagrophytes #4329: 28° C., 60 hours).
as §4

[4] = test system: Candida albicans 83-2-14; assay: MIC, two-fold agar dilution, C. albicans 83-2-14; type: cell-based; settings: 83214, YMA pH 7.0, 28° C., 40 hours
Protocol: as §1, §2, §3, §4

[5] = test system: Aspergillus fumigatus IAM 2034; assay: MIC, two-fold agar dilution, A. fumigatus IAM 2034; type: cell-based; settings: IAM2034
Protocol: as §1, §2, §3, §4

[6] = test system: Cryptococcus neoformans IAM 4514; assay: MIC, two-fold agar dilution, C. neoformans IAM 4514; type: cell-based; settings: IAM4514
Protocol: as §1, §2, §3, §4

[7] = test system: Cryptococcus neoformans D49; assay: MIC, two-fold agar dilution, C. neoformans D49; type: cell-based; settings: YMA pH 7.0, 28° C., 40 hours
Protocol: as §1, §2, §3, §4

[8] = test system: Candida albicans ATCC 32354; assay: MIC, two-fold agar dilution, C. albicans ATCC 32354; type: cell-based; settings: ATCC32354, YMA pH 7.0, 28° C., 40 hours
Protocol: as §1, §2, §3, §4

[9] = test system: Candida tropicalis IFO 10241; assay: MIC, two-fold agar dilution, C. tropicalis IFO 10241; type: cell-based; settings: IFO10241, YMA pH 7.0, 28° C., 40 hours
Protocol: as §1, §2, §3, §4

[10] = test system: Candida albicans A9540; assay: MIC, two-fold agar dilution, C. albicans A9540; type: cell-based
Protocol: as §1, §2, §3, §4

[11] = test system: Candida tropicalis 85-8; assay: MIC, two-fold agar dilution, C. tropicalis 85-8; type: cell-based; settings: 858, YMA pH 7.0, 28° C., 40 hours
Protocol: as §1, §2, §3, §4

[12] = test system: Candida albicans ATCC 38247; assay: MIC, two-fold agar dilution, C. albicans ATCC 38247; type: cell-based; settings: ATCC38247, YMA pH 7.0, 28° C., 60 hours (table footnote)
Protocol: as §1, §2, §3, §5, §4

[13] = test system: Candida albicans A9540; assay: animal or person; type: in vivo, male ICR mice infected with Candida albicans A9540
Protocol: The in vivo therapeutic efficacies of seven 4'-N-substituted pradimicin derivatives, KHM-1, KHM-2, KHM-3, KHM-4, KHM-5, KHM-6 and KHM-7 were evaluated in the mouse infected with Candida albicans A9540 and Aspergillus fumigatusIAM 2034. Groups of five specific-pathogen-free male ICR mice weighing 20-25 g at each dose level were intravenously infected with approximately 10 times the 50% lethal dose of C. albicans A9540 (1×10^6 cells/mouse) or A. fumigatus IAM 2034 (1×10^7 cells/mouse). Immediately after the fungal infection, test compounds dissolved with 10% DMSO in distilled water were intravenously given to the mouse at the dosed volume of 0.1 ml/10 g of body weight. […] Untreated control animals died 7 to 13 days post-infection.

[14] = Table 3, Trichophyton mentagrophytes #4329, YMA, read-out: MIC TM-4
[15] = Trichophyton mentagrophytes #4329, YMA pH 7.0, 28° C., 60 hours, read-out: MIC
[16] = Aspergillus fumigatus IAM 2034, YMA pH 7.0, 28° C., 40 hours, read-out: MIC
[17] = Table 3, Aspergillus fumigatus IAM 2034, YMA, read-out: MIC Af-3
[18] = Cryptococcus neoformans IAM 4514, YMA pH 7.0, 28° C., 40 hours, read-out: MIC
[19] = Table 3, Cryptococcus neoformans IAM 4514, YMA, read-out: MIC Cn-2
[20] = Candida albicans A9540, YMA pH 7.0, 28° C., 40 hours, read-out: MIC
[21] = Table 3, Candida albicans A9540, YMA, read-out: MIC Ca-4

Structure (SMILES) | MIC [1] | MIC [2] | MIC [3, 14] | MIC [3, 15] | MIC [4] | MIC [5, 16] | MIC [5, 17] | MIC [6, 18] | MIC [6, 19] | MIC [7] | MIC [8] | MIC [9] | MIC [10, 20] | MIC [10, 21] | MIC [11] | also measured
COc1cc(O)c2c(c1)C(=O)c1c(cc3c(c1O)-c1c(cc(C)c(C(=O)N[C@H](C)C(=O)O)c1O)[C@H](O[C@@H]1O[C@H](C)[C@H](NC(=N)N)[C@H](O[C@@H]4OC[C@@H](O)[C@H](O)[C@H]4O)[C@H]1O)[C@H]3O)C2=O [KHM-8, 4'-Guanidinopradimicin C] | 25 µg/mL (≈ 28.8 µM) | 12.5 µg/mL (≈ 14.4 µM) | 3.1 µg/mL (≈ 3.57 µM) | 3.1 µg/mL (≈ 3.57 µM) | > 100 µg/mL | 3.1 µg/mL (≈ 3.57 µM) | 3.1 µg/mL (≈ 3.57 µM) | 6.3 µg/mL (≈ 7.25 µM) | 6.3 µg/mL (≈ 7.25 µM) | 6.3 µg/mL (≈ 7.25 µM) | 12.5 µg/mL (≈ 14.4 µM) | > 100 µg/mL | 12.5 µg/mL (≈ 14.4 µM) | 12.5 µg/mL (≈ 14.4 µM) | > 100 µg/mL | –
COc1cc(O)c2c(c1)C(=O)c1c(cc3c(c1O)-c1c(cc(C)c(C(=O)N[C@H](C)C(=O)O)c1O)[C@H](O[C@@H]1O[C@H](C)[C@H](NC=N)[C@H](O[C@@H]4OC[C@@H](O)[C@H](O)[C@H]4O)[C@H]1O)[C@H]3O)C2=O [KHM-9, 4'-Amidinopradimicin C] | 1.6 µg/mL (≈ 1.87 µM) | 6.3 µg/mL (≈ 7.38 µM) | 3.1 µg/mL (≈ 3.63 µM) | 3.1 µg/mL (≈ 3.63 µM) | 12.5 µg/mL (≈ 14.6 µM) | 1.6 µg/mL (≈ 1.87 µM) | 1.6 µg/mL (≈ 1.87 µM) | 3.1 µg/mL (≈ 3.63 µM) | 3.1 µg/mL (≈ 3.63 µM) | 12.5 µg/mL (≈ 14.6 µM) | 6.3 µg/mL (≈ 7.38 µM) | > 100 µg/mL | 12.5 µg/mL (≈ 14.6 µM) | 12.5 µg/mL (≈ 14.6 µM) | 50 µg/mL (≈ 58.6 µM) | –
COc1cc(O)c2c(c1)C(=O)c1c(cc3c(c1O)-c1c(cc(C)c(C(=O)N[C@H](C)C(=O)O)c1O)[C@H](O[C@@H]1O[C@H](C)[C@H](N)[C@H](O[C@@H]4OC[C@@H](O)[C@H](O)[C@H]4O)[C@H]1O)[C@H]3O)C2=O [Pradimicin C] | 6.3 µg/mL (≈ 7.62 µM) | – | 3.1 µg/mL (≈ 3.75 µM) | 3.1 µg/mL (≈ 3.75 µM) | 50 µg/mL (≈ 60.5 µM) | 3.1 µg/mL (≈ 3.75 µM) | 3.1 µg/mL (≈ 3.75 µM) | 0.8 µg/mL (≈ 0.968 µM) | 0.8 µg/mL (≈ 0.968 µM) | 0.8 µg/mL (≈ 0.968 µM) | 6.3 µg/mL (≈ 7.62 µM) | 100 µg/mL (≈ 121 µM) | 25 µg/mL (≈ 30.2 µM) | 25 µg/mL (≈ 30.2 µM) | 100 µg/mL (≈ 121 µM) | MIC [12]: 3.1 µg/mL (≈ 3.75 µM); ED50 ([13]; 480 h, Table 3, Candida albicans A9540, iv, read-out: PD50 (mice) Ca-4): 14 mg/kg; responders at 6.3 mg/kg ([13]; Candida albicans, A9540, 480 h, C. albicans, mice, 6.3 mg/kg iv, 20th day post-infection, read-out: S/T (No. of survivors/tested) (converted)): 40%; responders at 12.5 mg/kg ([13]; Candida albicans, A9540, 480 h, C. albicans, mice, 12.5 mg/kg iv, 20th day post-infection, read-out: S/T (No. of survivors/tested) (converted)): 40%; responders at 25 mg/kg ([13]; Candida albicans, A9540, 480 h, C. albicans, mice, 25 mg/kg iv, 20th day post-infection, read-out: S/T (No. of survivors/tested) (converted)): 100%; responders at 50 mg/kg ([13]; Candida albicans, A9540, 480 h, C. albicans, mice, 50 mg/kg iv, 20th day post-infection, read-out: S/T (No. of survivors/tested) (converted)): 0%; ED50 ([13]; Candida albicans, A9540, 480 h, Table 2, C. albicans, mice, iv, 95% confidence limits in parentheses, read-out: PD50 (50% protection dose)): 13 mg/kg
